Data taken from patent US20070128217A1 (priority 2003, published 2007).

Key:
[1] = test system: rabbit serum obtained by immunizing a rabbit with the SARS-CoV strain Frankfurt 1; assay type: binding; parameters: Binding of a rabbit serum to linear peptides / Binding of a rabbit serum to looped peptides / Rabbit serum linear peptides / Rabbit serum looped peptides / Binding of a rabbit serum to linear peptides of protein N of SARS-CoV Urbani (Rabbit serum linear peptides) / Binding of a rabbit serum to looped/cyclic peptides of protein N of SARS-CoV Urbani (Rabbit serum looped peptides): unit not given here
[2] = test system: control sera (pooled serum of ten healthy LUMC hospital workers; commercial negative donor pooled serum from the Dutch bloodbank); assay type: binding, human; parameters: Binding of Control serum LUMC to linear peptides / Binding of Control serum Blood-bank to linear peptides / Binding of Control serum LUMC to looped peptides / Binding of Control Serum Blood-Bank to Looped peptides / Binding of Control serum LUMC to linear peptides of the protein M of SARS-CoV Urbani / Binding of Control serum Blood-bank to linear peptides of the protein M of SARS-CoV Urbani / Binding of Control serum LUMC to looped peptides of the protein M of SARS-CoV Urbani / Binding of Control Serum Blood-Bank to Looped peptides of the protein M of SARS-CoV Urbani: unit not given here

| Sequence | Binding of a rabbit serum to linear peptides [1] | Binding of a rabbit serum to looped peptides [1] | Binding of Control Serum Blood-Bank to Looped peptides [2] | Binding of Control serum Blood-bank to linear peptides [2] | Binding of Control serum LUMC to linear peptides [2] | Binding of Control serum LUMC to looped peptides [2] | Rabbit serum linear peptides [1] | Rabbit serum looped peptides [1] | other results |
| --- | --- | --- | --- | --- | --- | --- | --- | --- | --- |
| LKEDYQIGGYSEDRH | 0.1 | 0.7 | 0.4 | 0.5 | 0.5 | 0.5 | – | – | – |
| GNYKLNTDHAGSNDN | – | – | – | – | – | – | 0.0 | 0.2 | Binding of Control Serum Blood-Bank to Looped peptides of the protein M of SARS-CoV Urbani [2]: 0.6; Binding of Control serum Blood-bank to linear peptides of the protein M of SARS-CoV Urbani [2]: 0.6; Binding of Control serum LUMC to linear peptides of the protein M of SARS-CoV Urbani [2]: 0.7; Binding of Control serum LUMC to looped peptides of the protein M of SARS-CoV Urbani [2]: 0.7 |
| MRTFRIAIWNLDVII | – | – | – | – | – | – | 0.3 | 0.4 | Binding of Control Serum Blood-Bank to Looped peptides of the protein X3 of SARS-CoV Urbani [2]: 0.8; Binding of Control serum Blood-bank to linear peptides of the protein X3 of SARS-CoV Urbani [2]: 0.7; Binding of Control serum LUMC to linear peptides of the protein X3 of SARS-CoV Urbani [2]: 0.6; Binding of Control serum LUMC to looped peptides of the protein X3 of SARS-CoV Urbani [2]: 0.8 |
| GVKDYVVVHGYFTEV | 0.1 | 0.7 | 1.1 | 0.5 | 0.7 | 1.3 | – | – | – |
| GTTVLLKEPCPSGTY | – | – | 0.7 | 0.7 | 0.7 | 0.8 | 0.4 | 0.4 | – |
| ECVRGTTVLLKEPCP | – | – | 0.9 | 0.9 | 0.7 | 0.8 | 0.6 | 0.4 | – |
| GISTPKLKEDYQIGG | 0.1 | 0.3 | 0.4 | 0.5 | 0.4 | 0.4 | – | – | – |
| NWVTGGIAIAMACIV | – | – | – | – | – | – | 0.2 | 0.3 | Binding of Control Serum Blood-Bank to Looped peptides of the protein M of SARS-CoV Urbani [2]: 0.6; Binding of Control serum Blood-bank to linear peptides of the protein M of SARS-CoV Urbani [2]: 0.7; Binding of Control serum LUMC to linear peptides of the protein M of SARS-CoV Urbani [2]: 0.8; Binding of Control serum LUMC to looped peptides of the protein M of SARS-CoV Urbani [2]: 0.9 |
| DNGTITVEELKQLLE | – | – | – | – | – | – | – | – | Recognition of the peptide by the rabbit serum [1]: recognized; Binding of Control Serum Blood-Bank to Looped peptides of the protein M of SARS-CoV Urbani [2]: 0.4; Binding of Control serum Blood-bank to linear peptides of the protein M of SARS-CoV Urbani [2]: 0.7; Binding of Control serum LUMC to linear peptides of the protein M of SARS-CoV Urbani [2]: 0.8; Binding of Control serum LUMC to looped peptides of the protein M of SARS-CoV Urbani [2]: 0.7 |
| LNTDHAGSNDNIALL | – | – | – | – | – | – | 0.0 | 0.3 | Binding of Control Serum Blood-Bank to Looped peptides of the protein M of SARS-CoV Urbani [2]: 0.7; Binding of Control serum Blood-bank to linear peptides of the protein M of SARS-CoV Urbani [2]: 0.6; Binding of Control serum LUMC to linear peptides of the protein M of SARS-CoV Urbani [2]: 0.7; Binding of Control serum LUMC to looped peptides of the protein M of SARS-CoV Urbani [2]: 0.9 |
| VRGTTVLLKEPCPSG | – | – | 0.8 | 0.8 | 1.0 | 0.9 | 0.4 | 0.4 | – |
| CVRGTTVLLKEPCPS | – | – | 0.9 | 0.8 | 0.7 | 0.9 | 0.5 | 0.5 | – |
| SKKTTKLVVILRIGT | – | – | 0.7 | 0.6 | 0.8 | 0.7 | – | – | Recognition of the peptide by the rabbit serum [1]: recognized |
| RGTTVLLKEPCPSGT | – | – | 0.9 | 0.9 | 0.8 | 0.8 | 0.4 | 0.5 | – |
| YDANYFVCWHTHNYD | 0.1 | 0.4 | 0.3 | 0.7 | 0.7 | 0.4 | – | – | – |
| YVYSRVKNLNSSEGV | 1.2 | 0.5 | 0.9 | 0.8 | 0.6 | 0.8 | – | – | – |
| DNKFALTCTSTHFAF | – | – | 0.6 | 0.7 | 0.6 | 0.8 | 0.7 | 0.6 | – |
| RWHTMVQTCTPNVTI | – | – | 0.9 | 0.9 | 0.6 | 0.9 | 0.5 | 0.6 | – |
| NIVNVSLVKPTVYVY | 0.5 | 0.6 | 0.6 | 0.6 | 0.4 | 0.8 | – | – | – |
| SITAQPVKIDNASPA | 0.1 | 0.4 | 0.4 | 0.6 | 0.6 | 0.4 | – | – | – |
| FKPLTKKNYSELDDE | – | – | – | – | – | – | 0.5 | 0.5 | Binding of Control Serum Blood-Bank to Looped peptides of the protein X3 of SARS-CoV Urbani [2]: 0.8; Binding of Control serum Blood-bank to linear peptides of the protein X3 of SARS-CoV Urbani [2]: 0.8; Binding of Control serum LUMC to linear peptides of the protein X3 of SARS-CoV Urbani [2]: 0.8; Binding of Control serum LUMC to looped peptides of the protein X3 of SARS-CoV Urbani [2]: 0.8 |
| QLFKPLTKKNYSELD | – | – | – | – | – | – | 0.3 | 0.3 | Binding of Control Serum Blood-Bank to Looped peptides of the protein X3 of SARS-CoV Urbani [2]: 0.8; Binding of Control serum Blood-bank to linear peptides of the protein X3 of SARS-CoV Urbani [2]: 0.8; Binding of Control serum LUMC to linear peptides of the protein X3 of SARS-CoV Urbani [2]: 0.8; Binding of Control serum LUMC to looped peptides of the protein X3 of SARS-CoV Urbani [2]: 0.8 |
| LADNKFALTCTSTHF | – | – | 0.7 | 0.7 | 0.7 | 0.7 | 0.5 | 0.5 | – |
| PVKIDNASPASTVHA | 0.1 | 0.4 | 0.7 | 0.7 | 0.5 | 0.9 | – | – | – |
